pIC50: −log10 of the molar value. Where “and” joins values, the source holds several entries; their conditions need not be identical. Equal values may be shown once. Read-outs that look alike come from different tables or passages of the source.
What was measured:
C4-2 cell line cells = experiment: Cellular uptake / cell killing by luminescence, C4-2; assay type: cell-based; conditions: Homo sapiens, C4-2 cells, FIG. 5A
Procedure: (§1) Different cell lines were seeded, incubated, and washed prior to administering a dose solution of CK-TGX-MN. Cell lines tested included LNCaP cell line, which is a cell line with epithelial-like morphology that was isolated from a metastatic lymph node a lesion of human prostate cancer; C4-2, which is a prostate cancer cell line derived from LNCaP cells that grows in the absence of androgens, yet responds to manipulation of androgen levels; GL261 cell line, which are murine glioma cells isolated from […] brain; PC-3 cell line, which is a prostate cancer cell line that is typically used as a model of androgen-independent prostate cancer; TRAMP cell line, which are epithelial cells isolated from transgenic adenocarcinoma of the mouse prostate; and Hela cell line, which is an immortalized human cell line isolated from cervical cancer cells.
(§2) The cellular uptake was measured as a function of luminescence and concentration of CK-TGX-MN, by determining the IC50 value. A decrease in luminescence observed translates to the efficacy of CK-TGX-MN in killing the cells of the respective cell culture.

PI3Kβ isoform = PI3Kβ isoform (Homo sapiens, UniProt P42338); experiment: Inhibition of PI3Kβ isoform, dose response curves (FIG. 4B); assay type: biochemical
physchem = assay type: physicochemical
LNCaP cell line cells = experiment: Cellular uptake / cell killing by luminescence, LNCaP; assay type: cell-based; conditions: Homo sapiens, FIG. 5F
Procedure: as §1, §2
Finally, moving on to FIG. 5F, the cellular uptake of CK-TGX-MN and TGX-221 in LNCaP cell line cells was measured.

TRAMP cell line cells = experiment: Cellular uptake / cell killing by luminescence, TRAMP; assay type: cell-based; conditions: Mus musculus, FIG. 5D
Procedure: as §1, §2
Moving on to FIG. 5D, the cellular uptake of CK-TGX-MN and TGX-221 in TRAMP cell line cells was measured.

Hela cell line cells = experiment: Cellular uptake / cell killing by luminescence, Hela; assay type: cell-based; conditions: Homo sapiens, FIG. 5E
Procedure: as §1, §2
Moving on to FIG. 5E, the cellular uptake of CK-TGX-MN and TGX-221 in Hela cell line cells was measured.

[1] = Pharmacokinetic (PK) study, IV and oral route, in mice; conditions: mouse, in vivo, oral 2 mg/ml formulation vs IV 1 mg/ml formulation
Procedure: Bioavailability in Pharmacology is a measure of an amount of a drug substance that enters the circulation and becomes completely available for its intended purpose when introduced into the body. There are several delivery routes for drugs including intra-venous route (IV), oral route, subcutaneous route, rectal route, intramuscular route, vaginal route, inhaled route, and the like.
Bioavailability of CK-TGX-MN was determined in relation to a liquid formulation of CK-TGX-MN 1 mg/ml in 5% DMSO, 10%, and 85% aqueous solution. A dose amount of aqueous CK-TGX-MN was prepared for delivery through the IV route in-vivo. Additionally, a liquid formulation of CK-TGX-MN 2 mg/ml in 5% DMSO, 10%, and 85% aqueous solution was prepared for delivery of a dose amount of CK-TGX-MN through the oral route in-vivo. The pharmacokinetic (PK) studies were performed in mice. As shown in graph 302 of FIG. 3B, the depicted example mice had similar clearance of IV delivered CK-TGX-MN over time.

GL261 cell line cells = experiment: Cellular uptake / cell killing by luminescence, GL261; assay type: cell-based, murine; conditions: Mus musculus, FIG. 5B
Procedure: as §1, §2

PC-3 cell line cells = experiment: Cellular uptake / cell killing by luminescence, PC-3; assay type: cell-based; conditions: Homo sapiens, PC-3 cells, FIG. 5C
Procedure: as §1, §2
Moving on to FIG. 5C, the cellular uptake of CK-TGX-MN and TGX-221 in PC-3 cell line cells was measured.

[2] = background statement, cited from earlier work

Chain of PI3Kβ isoform (P42338 whole entry, canonical isoform): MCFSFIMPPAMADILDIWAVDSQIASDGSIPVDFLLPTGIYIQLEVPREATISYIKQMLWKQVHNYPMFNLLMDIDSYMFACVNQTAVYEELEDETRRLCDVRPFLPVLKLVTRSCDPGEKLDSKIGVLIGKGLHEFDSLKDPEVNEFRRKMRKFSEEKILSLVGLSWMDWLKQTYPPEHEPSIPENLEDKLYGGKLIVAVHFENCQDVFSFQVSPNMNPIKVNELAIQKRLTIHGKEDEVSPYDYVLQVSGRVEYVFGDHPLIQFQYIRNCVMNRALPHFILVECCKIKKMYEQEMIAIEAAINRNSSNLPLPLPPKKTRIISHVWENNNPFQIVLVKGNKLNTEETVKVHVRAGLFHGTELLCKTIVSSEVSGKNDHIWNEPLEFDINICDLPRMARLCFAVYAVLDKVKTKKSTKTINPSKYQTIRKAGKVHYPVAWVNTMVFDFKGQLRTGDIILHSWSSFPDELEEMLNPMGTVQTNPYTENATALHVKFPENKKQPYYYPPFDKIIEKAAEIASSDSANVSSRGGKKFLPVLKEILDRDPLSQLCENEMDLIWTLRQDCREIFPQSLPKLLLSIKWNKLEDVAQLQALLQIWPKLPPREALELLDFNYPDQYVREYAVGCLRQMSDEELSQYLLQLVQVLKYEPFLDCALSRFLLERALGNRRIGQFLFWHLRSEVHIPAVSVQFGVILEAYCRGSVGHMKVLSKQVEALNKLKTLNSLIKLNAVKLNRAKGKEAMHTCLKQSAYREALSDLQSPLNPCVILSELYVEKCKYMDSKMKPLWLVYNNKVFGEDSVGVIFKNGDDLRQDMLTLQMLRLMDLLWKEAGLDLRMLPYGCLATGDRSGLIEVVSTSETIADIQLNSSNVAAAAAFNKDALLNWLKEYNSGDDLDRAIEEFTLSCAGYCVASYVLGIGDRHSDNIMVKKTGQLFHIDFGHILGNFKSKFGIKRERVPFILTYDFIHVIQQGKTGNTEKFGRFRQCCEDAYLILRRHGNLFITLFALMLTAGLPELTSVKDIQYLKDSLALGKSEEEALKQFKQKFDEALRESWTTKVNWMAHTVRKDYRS
Chain of PI3Kβ isoform (P27986 whole entry partner, canonical isoform): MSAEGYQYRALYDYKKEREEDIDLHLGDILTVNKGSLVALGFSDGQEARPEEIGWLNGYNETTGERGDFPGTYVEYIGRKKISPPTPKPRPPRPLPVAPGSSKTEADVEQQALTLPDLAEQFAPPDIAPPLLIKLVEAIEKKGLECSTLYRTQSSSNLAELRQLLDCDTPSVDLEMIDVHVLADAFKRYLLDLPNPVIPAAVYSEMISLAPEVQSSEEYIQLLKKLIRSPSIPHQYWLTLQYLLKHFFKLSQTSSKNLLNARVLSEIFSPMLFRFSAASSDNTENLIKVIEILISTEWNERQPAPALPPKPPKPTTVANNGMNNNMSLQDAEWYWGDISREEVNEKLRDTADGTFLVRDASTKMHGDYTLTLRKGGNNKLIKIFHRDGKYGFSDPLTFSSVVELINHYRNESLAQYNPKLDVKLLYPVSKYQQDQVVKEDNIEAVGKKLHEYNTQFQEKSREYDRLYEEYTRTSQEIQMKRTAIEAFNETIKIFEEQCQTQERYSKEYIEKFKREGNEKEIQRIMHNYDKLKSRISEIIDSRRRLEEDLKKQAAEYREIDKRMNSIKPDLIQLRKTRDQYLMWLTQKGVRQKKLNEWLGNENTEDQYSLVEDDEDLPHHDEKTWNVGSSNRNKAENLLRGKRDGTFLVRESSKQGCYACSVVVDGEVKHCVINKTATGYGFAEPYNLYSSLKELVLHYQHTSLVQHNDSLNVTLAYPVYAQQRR

pIC50 (PI3Kβ isoform) | solubility (physchem) | bioavailability [1] [%] | SMILES | pIC50 (C4-2 cell line cells) | pIC50 (LNCaP cell line cells) | pIC50 (TRAMP cell line cells) | pIC50 (Hela cell line cells) | pIC50 (GL261 cell line cells) | pIC50 (PC-3 cell line cells) | solubility [2] [µg/mL] | Log D7.4 ([2]; pH 7.4)
8.02 | 4630 µg/mL and 11400 µM | ~6.4 | Cc1cc(C(C)N(CCN)c2ccccc2)c2nc(N3CCOCC3)cc(=O)n2c1 (stereo not drawn) [CK-TGX-MN, 9-(1-((2-aminoethyl)(phenyl)amino)ethyl)-7-methyl-2-morpholino-4H-pyrido[1,2-a]pyrimidin-4-one] | 4.80 | 5.19 | 4.76 | 4.62 | 4.87 | 4.61 | – | –
– | 90 µg/mL and 250 µM | – | Cc1cc(C(C)Nc2ccccc2)c2nc(N3CCOCC3)cc(=O)n2c1 (stereo not drawn) [TGX-221, 7-methyl-2-(4-morpholinyl)-9-[1-(phenylamino)ethyl]-4H-pyrido[1,2-a]pyrimidin-4-one] | 4.03 | 4.52 | 4.09 | 4.16 | 4.38 | 3.81 | < 1000 | 3.6
